Test results from patent US20090253671A1, “TRICYCLIC DERIVATIVES OF AZETIDINE AND PYRROLE WITH ANTIBACTERIAL ACTIVITY” (ASTRAZENECA AB, priority 2005, published 2009).
≈ marks a conversion by molar mass, not a printed value.

Tests used:
Test in all cases: Bacterial susceptibility testing in liquid media (MIC)
Format in all cases: cell-based
Streptococcus pneumoniae = conditions: lowest concentration reducing growth by 80% or more, 37 degrees C., 24 hrs; for MIC SPN548: strain SPN548
Protocol: (§1) Compounds were tested for antimicrobial activity by susceptibility testing in liquid media. Compounds were dissolved in dimethylsulfoxide and tested in 10 doubling dilutions in the susceptibility assays. The organisms used in the assay were grown overnight on suitable agar media and then suspended in a liquid medium appropriate for the growth of the organism. The suspension was a 0.5 McFarland and a further 1 in 10 dilution was made into the same liquid medium to prepare the final organism suspension in 100 μL. Plates were incubated under appropriate conditions at 37 degrees C. for 24 hrs prior to reading. The Minimum Inhibitory Concentration was determined as the lowest drug concentration able to reduce growth by 80% or more.

HIN446 = conditions: strain HIN446; lowest concentration reducing growth by 80% or more, 37 degrees C., 24 hrs
Protocol: as §1

SAU516 = conditions: strain SAU516; lowest concentration reducing growth by 80% or more, 37 degrees C., 24 hrs
Protocol: as §1

Compound | MIC SPN548 (Streptococcus pneumoniae) | MIC HIN446 (HIN446) | MIC SAU516 (SAU516) | MIC (Streptococcus pneumoniae; against Streptococcus pneumoniae)
Cc1nc(N2CC(NC(=O)c3[nH]c(C)c(Cl)c3Cl)C2)sc1C(=O)O [Example 5, 2-(3-{[(3,4-Dichloro-5-methyl-1H-pyrrol-2-yl)carbonyl]amino}azetidin-1-yl)-4-methyl-1,3-thiazole-5-carboxylic acid] | 0.5 µg/mL (≈ 1.28 µM) | 0.5 µg/mL (≈ 1.28 µM) | 4 µg/mL (≈ 10.3 µM) | –
CONC(=O)c1cc(N2CC(NC(=O)c3[nH]c(C)c(Cl)c3Cl)C2)nc(Cl)n1 [Example 9, 2-Chloro-6-(3-{[(3,4-dichloro-5-methyl-1H-pyrrol-2-yl)carbonyl]amino}azetidin-1-yl)-N-methoxypyrimidine-4-carboxamide] | 2 µg/mL (≈ 4.61 µM) | 4 µg/mL (≈ 9.22 µM) | 2 µg/mL (≈ 4.61 µM) | 2 µg/mL (≈ 4.61 µM)
CONC(=O)c1cnc(N2CC(NC(=O)c3[nH]c(C)c(Cl)c3Cl)C2)s1 [Example 8, 2-(3-{[(3,4-Dichloro-5-methyl-1H-pyrrol-2-yl)carbonyl]amino}azetidin-1-yl)-N-methoxy-1,3-thiazole-5-carboxamide] | 1 µg/mL (≈ 2.47 µM) | 8 µg/mL (≈ 19.8 µM) | 8 µg/mL (≈ 19.8 µM) | –
Cc1[nH]c(C(=O)NC2CN(c3ncc(C(=O)O)s3)C2)c(Cl)c1Cl [Example 4, 2-(3-{[(3,4-Dichloro-5-methyl-1H-pyrrol-2-yl)carbonyl]amino}azetidin-1-yl)-1,3-thiazole-5-carboxylic acid] | 4 µg/mL (≈ 10.7 µM) | 2 µg/mL (≈ 5.33 µM) | 32 µg/mL (≈ 85.3 µM) | –
